Experiment: T1 relaxivity by NMR inversion-recovery
Assay type: physicochemical
Details: per molecule concentration
Protocol: The T 1 relaxivity values of water‐soluble Gd MBTs were tested on 60 MHz (1.4 T) and 300 MHz (7.1 T) NMR spectrometers (Table S1), together with a representative commercial GBCA gadodiamide (i.e., Omniscan^TM). […] The enhanced contrast was directly visualized on a 1.0 T MRI scanner, with 20 μM and 5 μM 8 d, 8 d′, 8 e, and gadodiamide (Figure 5a), and the imaging contrast is consistent with the measured relaxivity values. The preclusion of ion leakage by the robust EMF cage dictates that the real limiting factor of MBT contrast agents is the toxicity of the MBT structure, not individual Gd^3+ ions, which means the molecular relaxivity of the MBTs is the more appropriate and relevant parameter for clinical evaluations. […]
Dynamic light scatt ering ex periments w ere performed using a Malvern Z etasizer Nano Z S90 instrument w ith a standard laser source (4mW, 633nm), to measure the hydrodynamic s ize of the aggregates formed by the samples in s olution. 1 uM sample concentrations were used for all the samples measured. […]
Samples 8b, 8b′ and 8c (16 µM, or 16800 ppb Lu) were taken in dialysis bags (MWCO = 1kD) and dialyzed against 1 50 mL PBS 1x f or 7 days without changing diasylate (outside solution in the beaker). […] With a detection limit < 0.1 ppb, no Lu3+ ions w ere detected in the three solutions, confirming the cage confinement of the metal ions. […]

r1 (1.4 T), T1 relaxivity (60 MHz (1.4 T) NMR): 4.4 mM⁻¹ s⁻¹ | r1 (7.1 T), T1 relaxivity (300 MHz (7.1 T) NMR): 3.9 mM-1S-1
Structure (SMILES): CNC(=O)CN(CCN(CCN(CC(=O)[O-])CC(=O)NC)CC(=O)[O-])CC(=O)[O-].[Gd+3] [gadodiamide]
